Read-outs that look alike come from different tables or passages of the source.
Experiments:
[1] = tested on: SW480 human colon adenocarcinoma cells; assay: Sulforhodamine B (SRB) growth inhibition / cytotoxicity, SW480; format: cell-based; settings: for IC50: Homo sapiens, SRB, mean ± SE; for IC50 / cytotoxic activity (in words): SW480; for cytotoxic activity (in words): 24 h and 48 h after treatment; for SI (selectivity index): ratio IC50 CHO-K1 / IC50 SW480;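 for all read-outs here: cells exposed to graded doses from 10^-5 to 0.2 mM, with 1% DMSO as vehicle control, and cellular protein quantified by SRB staining after trichloroacetic acid fixation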
Protocol: Cells were cultured in 25-cm^2 flasks containing Dulbecco’s Modified Eagle Medium, supplemented with 10% heat-inactivated (56 °C) horse serum, 1% penicillin/streptomycin and 1% non-essential amino acids (Gibco Invitrogen, Carlsbad, USA). For all experiments, horse serum was reduced to 3%, and the medium was supplemented with 5 mg/mL transferrin, 5 mg/mL selenium and 10 mg/mL insulin (ITS-defined medium; Gibco, Invitrogen, Carlsbad, USA) ([33]).

[2] = tested on: non-malignant CHO-K1 cell line; assay: Sulforhodamine B (SRB) growth inhibition / cytotoxicity, CHO-K1; format: cell-based; settings: Cricetulus griseus, mean ± SE, read-out: IC50 (mM) CHO-K1 cells
Protocol: Biological assays were performed using adenocarcinoma colon cancer (SW480) and non-malignant (CHO-K1) cell lines obtained from The European Collection of Authenticated Cell Cultures (ECACC, England). Cells were cultured in 25-cm^2 flasks containing Dulbecco’s Modified Eagle Medium, supplemented with 10% heat-inactivated (56 °C) horse serum, 1% penicillin/streptomycin and 1% non-essential amino acids (Gibco Invitrogen, Carlsbad, USA). For all experiments, horse serum was reduced to 3%, and the medium was supplemented with […] (ITS-defined medium; Gibco, Invitrogen, Carlsbad, USA) ([33]).
The growth inhibition of the ethanol extract, the Chromone and 5-fluorouracil (5-FU; the standard drug) was evaluated through sulforhodamine B (SRB) assay, a colorimetric test that is based on staining of total cellular protein of adherent cells. Cells were seeded to a ﬁnal density of 20.000 cells/well in 96-well tissue culture plates and incubated at 37 °C in a humidified atmosphere at 5% CO2. All cultures were allowed to grow for 24 h. Afterward, they were treated with 1% of DMSO (vehicle control) or increasing concentrations (10^-5–0,2 mM) of the compounds. After treatment, cells were fixed with trichloroacetic acid (50% v/v; MERCK) for one hour at 4 °C. Cell proteins were determined by staining with SRB (0.4% w/v; Sigma-Aldrich, United States), then they were washed with 1% acetic acid to remove unbound SRB and left for air-drying. Protein-bound SRB was solubilized in 10 mM Tris-base, and the absorbance was measured at 492 nm in a microplate reader (Mindray MR-96A) ([33], [34]). All experiments were performed in quintuplicate. These values were used to calculate the IC50, through dose-response curves for each compound and the selectivity index (SI), by the ratio of IC50 values in non-malignant CHO-K1 cells to IC50 of SW480 cells.
All experiments were performed at least three times. Data are reported as mean ± SE (standard error). Statistical differences between the control group (non-treated) and treated cells were evaluated by one-way ANOVA followed by the Dunnett’s test. Values with p ≤ 0.05 were considered significant. Data were analyzed with GraphPad Prism version 7.04 for Windows (Graph Pad Software, San Diego, California, USA).

non-cancer CCD841 cells = tested on: non-cancer CCD841 cells; set-up: method as in PMID 30429977; settings: compared with CRC cell lines; cited from earlier work

melting point	Structure (SMILES)	IC50 ([1]; 24 h)	IC50 ([1]; 48 h)	cytotoxic activity (in words) [1]	IC50 ([2]; 24 h)	IC50 ([2]; 48 h)	SI (selectivity index) ([1]; 48 h)	SI (selectivity index) ([1]; 24 h)	SI (selectivity index) ([1]; 48 h, listed as 5-fluorouracil)	fold less inhibitory activity against non-cancer CCD841 cells (non-cancer CCD841 cells)
	C=CCSC[C@H](NC(=O)C(C)c1ccc2cc(OC)ccc2c1)C(=O)OC (mixture of isomers) [11a, Methyl S-allyl-N-(2-(6-methoxynaphthalen-2-yl)propanoyl)-L-cysteinate]	> 0.2 mM	> 0.2 mM	displayed activity neither 24 h nor 48 h	> 0.2 mM	> 0.2 mM				
	C=CCSC[C@H](NC(=O)C(C)c1ccc2cc(OC)ccc2c1)C(=O)OCC (mixture of isomers) [11b, Ethyl S-allyl-N-(2-(6-methoxynaphthalen-2-yl)propanoyl)-L-cysteinate]	> 0.2 mM	0.156 ± 0.008 mM		> 0.2 mM	> 0.2 mM	>1.28			
	C=CCSC[C@H](NC(=O)C(C)c1ccc2cc(OC)ccc2c1)C(=O)OCCC (mixture of isomers) [11c, Propyl S-allyl-N-(2-(6-methoxynaphthalen-2-yl)propanoyl)-L-cysteinate]	> 0.2 mM	0.237 ± 0.012 mM	displayed activity neither 24 h nor 48 h	> 0.2 mM	> 0.2 mM				
89 to 91 °C	C=CCSC[C@H](NC(=O)C(C)c1ccc(CC(C)C)cc1)C(=O)OC (mixture of isomers) [12a, Methyl S-allyl-N-(2-(4-isobutylphenyl)propanoyl)-L-cysteinate]	> 0.2 mM	0.244 ± 0.011 mM	displayed activity neither 24 h nor 48 h	> 0.2 mM	0.201 ± 0.001 mM	0.82			
65 to 67 °C	C=CCSC[C@H](NC(=O)C(C)c1ccc(CC(C)C)cc1)C(=O)OCC (mixture of isomers) [12b, Ethyl S-allyl-N-(2-(4-isobutylphenyl)propanoyl)-L-cysteinate]	> 0.2 mM	0.183 ± 0.005 mM		> 0.2 mM	0.241 ± 0.018 mM	1.31			
58 to 60 °C	C=CCSC[C@H](NC(=O)C(C)c1ccc(CC(C)C)cc1)C(=O)OCCC (mixture of isomers) [12c, Propyl S-allyl-N-(2-(4-isobutylphenyl)propanoyl)-L-cysteinate]	0.225 ± 0.01 mM	0.209 ± 0.005 mM	displayed activity neither 24 h nor 48 h	> 0.2 mM	> 0.2 mM		>1.1		
	O=c1[nH]cc(F)c(=O)[nH]1 [5-Fluorouracil, reference compound]	0.096 ± 0.024 mM	0.037 ± 0.013 mM		0.125 ± 0.022 mM	0.046 ± 0.015 mM	1.22		higher than 1	
112 to 114 °C	C=CCSC[C@H](NC(=O)c1ccccc1O)C(=O)OC [9a, Methyl S-allyl-N-(2-hydroxybenzoyl)-L-cysteinate]	> 0.2 mM	> 0.2 mM	displayed activity neither 24 h nor 48 h	0.146 ± 0.016 mM	0.157 ± 0.005 mM	<0.80	<0.73		
	C=CCSC[C@H](NC(=O)c1ccccc1O)C(=O)OCC [9b, Ethyl S-allyl-N-(2-hydroxybenzoyl)-L-cysteinate]	0.16 ± 0.013 mM	> 0.2 mM		> 0.2 mM	> 0.2 mM		>1.25		
	C=CCSC[C@H](NC(=O)c1ccccc1O)C(=O)OCCC [9c, Propyl S-allyl-N-(2-hydroxybenzoyl)-L-cysteinate]	> 0.2 mM	> 0.2 mM	displayed activity neither 24 h nor 48 h	> 0.2 mM	> 0.2 mM				
	C=CCSC[C@H](NC(=O)Cc1ccccc1Nc1c(Cl)cccc1Cl)C(=O)OC [10a, Methyl S-allyl-N-(2-(2-((2,6-dichlorophenyl)amino)phenyl)acetyl)-L-cysteinate]	0.192 ± 0.004 mM	0.12 ± 0.004 mM		0.18 ± 0.012 mM	0.112 ± 0.008 mM				
	C=CCSC[C@H](NC(=O)Cc1ccccc1Nc1c(Cl)cccc1Cl)C(=O)OCC [10b, Ethyl S-allyl-N-(2-(2-((2,6-dichlorophenyl)amino)phenyl)acetyl)-L-cysteinate]	0.24 ± 0.013 mM	0.131 ± 0.012 mM		> 0.2 mM	> 0.2 mM	>1.53			
	C=CCSC[C@H](NC(=O)Cc1ccccc1Nc1c(Cl)cccc1Cl)C(=O)OCCC [10c, Propyl S-allyl-N-(2-(2-((2,6-dichlorophenyl)amino)phenyl)acetyl)-L-cysteinate]	0.204 ± 0.005 mM	0.158 ± 0.002 mM		0.223 ± 0.005 mM	0.167 ± 0.1 mM	1.06	1.09		
	CC(=O)Oc1ccccc1C(=O)O [Aspirin, reference compound]	> 0.2 mM	> 0.2 mM		> 0.2 mM	> 0.2 mM				
	O=C(O)Cc1ccccc1Nc1c(Cl)cccc1Cl [Diclofenac, reference compound]	0.267 ± 0.01 mM	0.206 ± 0.011 mM		> 0.2 mM	0.202 ± 0.001 mM	0.98			
	CC(C)Cc1ccc(C(C)C(=O)O)cc1 (stereo not drawn) [Ibuprofen, reference compound]	> 0.2 mM	> 0.2 mM		> 0.2 mM	> 0.2 mM				
	COc1ccc2cc([C@H](C)C(=O)O)ccc2c1 [Naproxen, reference compound]				> 0.2 mM	> 0.2 mM				
	COc1ccc(/C=C/C(=O)c2ccc(Cl)cc2)c(OC(=O)c2ccccc2OC(C)=O)c1 [compound 4]									8 fold

— publication PMC8653649, “Promising Hybrids Derived from S-Allylcysteine and NSAIDs Fragments against Colorectal Cancer: Synthesis, In-vitro Evaluation, Drug-Likeness and In-silico ADME/tox Studies” (Iranian Journal of Pharmaceutical Research : IJPR, 2021)
